Source: the NIST ThermoML archive (doi:10.1021/acs.jced.6b00429)
Numbers after ± are expanded uncertainties.

Settings: Liquid, Ebulliometric method (Recirculating still)

| vapor or sublimation pressure (365.01 K) [kPa] | vapor or sublimation pressure (370.79 K) [kPa] | vapor or sublimation pressure (375.66 K) [kPa] | vapor or sublimation pressure (394.71 K) [kPa] | vapor or sublimation pressure (400.93 K) [kPa] | vapor or sublimation pressure (406.16 K) [kPa] | SMILES |
| --- | --- | --- | --- | --- | --- | --- |
| 53.3 ± 0.5 | 66.7 ± 0.5 | 80 ± 0.6 | – | – | – | OCC(F)(F)C(F)F [2,2,3,3-tetrafluoro-1-propanol] |
| – | – | – | 53.3 ± 0.5 | 66.7 ± 0.5 | 80 ± 0.6 | OCC(F)(F)C(F)(F)C(F)(F)C(F)F [2,2,3,3,4,4,5,5-octafluoro-1-pentanol] |
